In the OligoGym collection:
After the bases stand the sugars from the 5' end (letter, count) and the backbone: PS all phosphorothioate, else s phosphorothioate and o phosphodiester by linkage. Methylation of C is not given here. e = 2'-O-(2-methoxyethyl) (MOE); k = constrained ethyl (cEt); d = 2'-deoxy (DNA); m = 2'-O-methyl

Molecular target: HSD17B13
Conditions: ASO, HepaRG

Row | Sequence | target mRNA inhibition (1 µM) | further results
1 | ATTAATCATGGGACAG (sugars k3 d10 k3, PS) | 20% | –
2 | ATTAATGCCACCCTAC (sugars k3 d10 k3, PS) | 6% | –
3 | ATTACAGCCTTAGAGT (sugars k3 d10 k3, PS) | 56% | –
4 | ATTAGTCTTGATGTAG (sugars k3 d10 k3, PS) | 67% | –
5 | ATTATTTCTTGCGAGA (sugars k3 d10 k3, PS) | 60% | –
6 | ATTCTATAGCTAAGTA (sugars k3 d10 k3, PS) | 23% | –
7 | ATTGAATAGCCATGTA (sugars k3 d10 k3, PS) | 39% | –
8 | ATTGAATTCACTATCT (sugars k3 d10 k3, PS) | 31% | –
9 | ATTGATACACCAATGC (sugars k3 d10 k3, PS) | 66% | –
10 | ATTGATTCGAAACTAT (sugars k3 d10 k3, PS) | 22% | –
11 | ATTGTAATCTTGAGGC (sugars k3 d10 k3, PS) | 39% | –
12 | ATTGTATGAGGTCTCT (sugars k3 d10 k3, PS) | 49% | –
13 | ATTTAAAATAGAGTCG (sugars k3 d10 k3, PS) | 24% | –
14 | ATTTTTGGTGAACCCA (sugars k3 d10 k3, PS) | 8% | –
15 | CAAAACAAGATTAGTC (sugars k3 d10 k3, PS) | 18% | –
16 | CAAAACCTTTGTTGCC (sugars k3 d10 k3, PS) | 14% | –
17 | CAAACATGGATGTTAG (sugars k3 d10 k3, PS) | 49% | –
18 | CAAACCTTGAATGAGT (sugars k3 d10 k3, PS) | 53% | –
19 | CAAAGTTAATAGGACT (sugars k3 d10 k3, PS) | 50% | –
20 | CAAAGTTTGGGCAGAG (sugars k3 d10 k3, PS) | 44% | –
21 | CAAATGAGGCGGCACT (sugars k3 d10 k3, PS) | 32% | –
22 | CAAATTCATAAGTAGT (sugars k3 d10 k3, PS) | 76% | –
23 | CAACACTAATCTCAGT (sugars k3 d10 k3, PS) | 4% | –
24 | CAACAGTTTAGATTGC (sugars k3 d10 k3, PS) | 66% | –
25 | CAACTATGTAATAGGC (sugars k3 d10 k3, PS) | 79% | target mRNA inhibition (0.02 µM): 1%; target mRNA inhibition (0.078 µM): 17%; target mRNA inhibition (0.313 µM): 42%; target mRNA inhibition (1.25 µM): 73%; target mRNA inhibition (5 µM): 92%
26 | CAAGACATTCTAGCCT (sugars k3 d10 k3, PS) | 58% | –
27 | CAAGACTTAAACACCA (sugars k3 d10 k3, PS) | 55% | –
28 | CAAGAGGATAGTCCAT (sugars k3 d1 m1 d8 k3, PS) | 60% | –

Row | Sequence | target mRNA inhibition (1 µM) | further results
29 | CAAGTAAGGTAAAGTC (sugars k3 d10 k3, PS) | 33% | –
30 | CAATAATAATGGGCAG (sugars k3 d10 k3, PS) | 43% | –
31 | CAATACAGGCCATAAT (sugars k3 d10 k3, PS) | 0% | –
32 | CAATTCACATATGTGA (sugars k3 d10 k3, PS) | 11% | –
33 | CACATACGCATGCGCA (sugars k3 d10 k3, PS) | 59% | –
34 | CACCAATGCAGTTTGT (sugars k3 d10 k3, PS) | 42% | –
35 | CACCATGAAGGACTCC (sugars k3 d10 k3, PS) | 48% | –
36 | CACCATGACAGCTTCA (sugars k3 d10 k3, PS) | 65% | –
37 | CACCGTTTTGGGCTAA (sugars kkdddddddddkekek, PS) | 42% | –
38 | CACCTTTCATAATGTA (sugars k3 d10 k3, PS) | 59% | –
39 | CAGAACCAATATGCTC (sugars k3 d10 k3, PS) | 56% | –
40 | CAGAATATATACTAGG (sugars k3 d10 k3, PS) | 55% | –
41 | CAGAGACATGAGGTTT (sugars k3 d1 m1 d8 k3, PS) | 61% | –
42 | CAGCTATAGGTAGCTA (sugars k3 d10 k3, PS) | 0% | –
43 | CAGGAAGACAGGTAAT (sugars k3 d10 k3, PS) | 60% | –
44 | CAGGGTGGTAACGGTG (sugars k3 d1 m1 d8 k3, PS) | 29% | –
45 | CAGGGTGGTAACGGTG (sugars k3 d10 k3, PS) | 55% | –
46 | CAGGTAATTAATCTTG (sugars k3 d10 k3, PS) | 54% | –
47 | CAGGTTGAGATAAAGC (sugars k3 d9 k3 e1, PS) | 63% | –
48 | CAGGTTGAGATAAAGC (sugars k3 d10 k3, PS) | 49% | –
49 | CAGTAAAATTATGCCT (sugars k3 d10 k3, PS) | 38% | –
50 | CAGTAGGTGTGTTTCA (sugars k3 d10 k3, PS) | 47% | –
51 | CAGTATCCCCTCAAAT (sugars k3 d10 k3, PS) | 53% | –
52 | CAGTUTTCCTCATGAT (sugars k3 d1 m1 d8 k3, PS) | 0% | –
53 | CATAACCATAGGACAT (sugars k3 d10 k3, PS) | 41% | –
54 | CATAAGAGATGAGTAG (sugars k3 d10 k3, PS) | 44% | –
55 | CATAATAATAGCTCTA (sugars k3 d9 k3 e1, PS) | 55% | –
